Values quoted from earlier work, collected in PMC2912417 (Biochemistry, 2010).
Like-named read-outs stand apart in the source and are kept apart here.

Legend:
[1] = tested on: Aβ42-induced toxicity
[2] = peptide alone

In the case of IGLMVGGVVIA [Aβ(32–42)], the “Toxicity of the peptide itself” value [1] is given as “slightly toxic itself” and the “Aggregation / fibril formation of the peptide itself” value [2] is given as “predominantly amorphous, rather than fibrillar, aggregates”.
In the case of KGAIIGLMVGGVVIA [Aβ(28–42)], the “Toxicity of the peptide itself” value ([1]; cell-viability screen) is listed as “highly toxic itself”.
In the case of LMVGGVV [Aβ(34–40)], the “Inhibition of Aβ42-induced toxicity” value ([1]; cell-viability screen under similar conditions) is listed as “inactive”.
